# Assay results taken from PubChem BioAssay AID1963976 (Molecular Pharmacology Branch, DTP, NCI, 2024).
# pIC50: −log10 of the molar value.
# System: 435261-313-R-J1-PDC tumor spheroid viability
# Assay: Anticancer human tumor 435261-313-R-J1-PDC patient-derived colon adenocarcinoma cell line growth inhibition [PI3K]
# Conditions: spheroids with HUVEC and MSC; for pIC50: curve of first compound; for viability, T/C: stronger effect = lower value
# From the text: Combinatorial screen of targeted agents with the PI3K inhibitors inavolisib, alpelisib, duvelisib, and copanlisib in multi-cell type tumor spheroids
# A high-throughput screen of multi-cell type tumor spheroids was designed to identify active combinations of targeted small molecules and PI3K pathway inhibitors. Complex spheroids include a stromal component modeled by human endothelial cells (HUVEC) and fibroblasts modeled by human mesenchymal stem cells (MSCs). The concentration ranges selected for each drug and investigational agent were based upon clinically achievable concentrations if the clinical Cmax of the agent was known.
# Compounds. The drugs and investigational agents: inavolisib (NSC800729), alpelisib (NSC765974), duvelisib (NSC772469), copanlisib (NSC816437), ipatasertib (NSC767898), afuresertib (NSC778305), talazoparib (NSC767125), sapanisertib (NSC764658), selumetinib (NSC741078), tovorafenib (DAY101, NSC766906), vemurafenib (NSC761431), ravoxertinib (NSC781343), sotorasib (NSC818433), MRTX1133 (NSC 836407), abemaciclib (NSC 768073), palbociclib (NSC758247), venetoclax (NSC 766270), SY5609 (NSC837396), enzalutamide (NSC755605), and darolutamide (NSC825331), were obtained from the National Cancer Institute (NCI) Developmental Therapeutics Program Chemical Repository. The FDA-approved anticancer drug set is available from the NCI Developmental Therapeutics Program. […] The stock solutions were prepared in dimethyl sulfoxide (DMSO, Sigma-Aldrich, St. Louis, MO, cat. D2650) at 800-fold the tested concentration and stored at -70 degrees C prior to their use. All drugs and investigational agents were tested over a range starting from a high concentration at or near the clinical Cmax and decreasing in half-log increments. If the clinical Cmax for an agent had not been determined, the highest concentration tested was 10 microM.
# Cell Culture. All cells were maintained in an incubator at 37 degrees C and 5% CO2 with 95% humidity. The PDC lines were cultured according to standard operating procedures established by the NCI PDMR (https://pdmr.cancer.gov/sops/default.htm). All PDCs were thawed and cultured in Matrigel-coated flasks prepared with a working solution of 1X Ham's F-12 nutrient mix, without supplementation (Invitrogen, Waltham, MA, cat. 11765054), 100 U/mL penicillin-streptomycin (Invitrogen, cat. 15140122), and 2.5% Matrigel (Corning Inc., Corning, NY, cat. 354248) for the first three passages. The 354836-022-R-J1-PDC, 475296-252-R-J1-PDC, and 997726-040-R-J2-PDC lines were cultured in 6A media, which includes advanced DMEM/F-12 (Thermo Fisher Scientific, cat. 12634028), 10 mM HEPES (Thermo Fisher Scientific, cat. 15630080), 1X GlutaMAX supplement (Thermo Fisher Scientific, cat. 35050061), 0.1 mg/mL primocin (InvivoGen, San Diego, CA, cat. ant-pm-2), 10% defined fetal bovine serum, heat inactivated (HyClone Laboratories Inc., Logan, UT, cat. SH30070.03HI), 50% L-WRN conditioned media (ATCC, cat. CRL-3276), 1.25 mM N-Acetyl-L-cysteine (Sigma-Aldrich, cat. A9165), 10 mM nicotinamide (Sigma-Aldrich, cat. N0636), 1X B-27 supplement (Thermo Fisher Scientific, cat. 17504044), 1X N-2 supplement (Thermo Fisher Scientific, cat. 17502048), and 10 microM Y-27632 dihydrochloride (Tocris Bioscience, Bristol, United Kingdom, cat. 1254). The 624824-186-R-J2-PDC line was cultured in 6C/Colon 1B media, which includes all 6A media components plus 50 ng/mL human EGF recombinant protein (Thermo Fisher Scientific, cat. PHG0311). […]
# 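Also: spheroids exposed to compounds for 7 days.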
smiles,measurement,setting,value
Cn1cnc2c(F)c(Nc3ccc(Br)cc3Cl)c(C(=O)NOCCO)cc21 + COc1c(OCCCN2CCOCC2)ccc2c3n(c(=NC(=O)c4cnc(N)nc4)nc12)CCN3,pIC50,second compound 0.00316 µM,> 8.02
same,pIC50,second compound 0.01 µM,> 8.02
same,pIC50,second compound 0.0316 µM,> 8.02
same,pIC50,second compound 0.1 µM,> 8.02
same,pIC50,second compound 0.316 µM,> 8.02
same,pIC50,second compound 1 µM,> 8.02
same,"viability, T/C","second compound 0.00316 µM, first compound 0.00949 µM",29.7%
same,"viability, T/C","second compound 0.00316 µM, first compound 0.03 µM",25.4%
same,"viability, T/C","second compound 0.00316 µM, first compound 0.0949 µM",20.5%
same,"viability, T/C","second compound 0.00316 µM, first compound 0.3 µM",19%
same,"viability, T/C","second compound 0.00316 µM, first compound 0.949 µM",19.1%
same,"viability, T/C","second compound 0.00316 µM, first compound 3 µM",14.2%
same,"viability, T/C","second compound 0.01 µM, first compound 0.00949 µM",24.2%
same,"viability, T/C","second compound 0.01 µM, first compound 0.03 µM",20.6%
same,"viability, T/C","second compound 0.01 µM, first compound 0.0949 µM",22.4%
same,"viability, T/C","second compound 0.01 µM, first compound 0.3 µM",17.8%
same,"viability, T/C","second compound 0.01 µM, first compound 0.949 µM",16.4%
same,"viability, T/C","second compound 0.01 µM, first compound 3 µM",9.17%
same,"viability, T/C","second compound 0.0316 µM, first compound 0.00949 µM",30.9%
same,"viability, T/C","second compound 0.0316 µM, first compound 0.03 µM",16.9%
same,"viability, T/C","second compound 0.0316 µM, first compound 0.0949 µM",14.4%
same,"viability, T/C","second compound 0.0316 µM, first compound 0.3 µM",11.1%
same,"viability, T/C","second compound 0.0316 µM, first compound 0.949 µM",11.4%
same,"viability, T/C","second compound 0.0316 µM, first compound 3 µM",3.71%
same,"viability, T/C","second compound 0.1 µM, first compound 0.00949 µM",8.18%
same,"viability, T/C","second compound 0.1 µM, first compound 0.03 µM",7.27%
same,"viability, T/C","second compound 0.1 µM, first compound 0.0949 µM",7.24%
same,"viability, T/C","second compound 0.1 µM, first compound 0.3 µM",6.07%
same,"viability, T/C","second compound 0.1 µM, first compound 0.949 µM",3.14%
same,"viability, T/C","second compound 0.1 µM, first compound 3 µM",0.52%
same,"viability, T/C","second compound 0.316 µM, first compound 0.00949 µM",2.98%
same,"viability, T/C","second compound 0.316 µM, first compound 0.03 µM",2.65%
same,"viability, T/C","second compound 0.316 µM, first compound 0.0949 µM",1.65%
same,"viability, T/C","second compound 0.316 µM, first compound 0.3 µM",0.71%
same,"viability, T/C","second compound 0.316 µM, first compound 0.949 µM",0.32%
same,"viability, T/C","second compound 0.316 µM, first compound 3 µM",0.75%
same,"viability, T/C","second compound 1 µM, first compound 0.00949 µM",0.94%
same,"viability, T/C","second compound 1 µM, first compound 0.03 µM",0.62%
same,"viability, T/C","second compound 1 µM, first compound 0.0949 µM",0.53%
same,"viability, T/C","second compound 1 µM, first compound 0.3 µM",0.36%
same,"viability, T/C","second compound 1 µM, first compound 0.949 µM",0.26%
same,"viability, T/C","second compound 1 µM, first compound 3 µM",0.49%
